The structures appear in SMILES notation. pIC50: −log10 of the molar value.

This note sets out measurements from US6407108B1, “1,2,4-triazolo(4,3-b)pyrido(3,2-d)pyridazine derivatives and pharmaceutical compositions containing them” (Almirall Prodesfarma, S.A., priority 1997, dated 2002).

In series [1] the target is cyclic nucleotide phosphodiesterase 4 from guinea-pig hearts. The series can be described thus: Inhibition of cyclic nucleotide phosphodiesterase 4 (96-well microtiter plates, Verghese et al.). As to conditions: PDE 4 from guinea-pig hearts; read-out: PDE4 IC50. Format: biochemical. On the procedure: The inhibition of cyclic nucleotide phosphodiesterase 4 from guinea-pig hearts was performed using 96-well microtiter plates as described by Verghese et al., (Molecular Pharmacology, 47, 1164-1171 (1995)).

Consider `CCCCc1nnc2c3cccnc3c(-c3ccccc3)nn12` [Compound 6], for which the melting point (as a rule, the temperature, or range, at which the solid turns liquid) was found to be 162.9 °C. Besides, the pIC50 (commonly −log10 of the IC50, conventionally taken in molar units) in series [1] was 5.70.

Take `CC(C)Cc1nnc2c3cccnc3c(-c3ccccc3)nn12` [Compound 7]: the melting point amounted to 179.7 °C. Also, the pIC50 in series [1] was 6.52.

The compound `CC(C)(C)c1nnc2c3cccnc3c(-c3ccccc3)nn12` [Compound 8, 3-t-butyl-6-phenyl-1,2,4-triazolo[4,3-b]pyrido[3,2-d]pyridazine] came in with a melting point of 188.1 °C.

In the case of `c1ccc(-c2nn3c(C4CC4)nnc3c3cccnc23)cc1` [Compound 12, 3-cyclopropyl-6-phenyl-1,2,4-triazolo[4,3-b]pyrido[3,2-d]pyridazine], the melting point turned out to be 244.3 °C. Also, the negative logarithm of the IC50 (pIC50) in series [1] is 5.52.

For the compound `CC(C)Cc1nnc2c3cccnc3c(-c3ccc(F)cc3)nn12` [Compound 31, 6-(4-fluorophenyl)-3-isobutyl-1,2,4-triazolo[4,3-b]pyrido[3,2-d]pyridazine], the melting point came to 135 °C. In series [1], the pIC50 is 6.70.

Take `Fc1cccc(-c2nn3c(CC4CCCC4)nnc3c3cccnc23)c1` [Compound 47]: the melting point was determined as 145 °C. Also, the negative-log IC50 (pIC50) in series [1] is 6.15.

`CC(C)Cc1nnc2c3cccnc3c(-c3cccc(Cl)c3)nn12` [Compound 55] gave a melting point of 113 °C. Besides, the pIC50 in series [1] was 6.70.

As for `Clc1cccc(-c2nn3c(CC4CC4)nnc3c3cccnc23)c1` [Compound 60], the melting point is 136 °C. Also, the negative-log IC50 (pIC50) in series [1] was 7.00.

`Clc1cccc(-c2nn3c(CC4CCC4)nnc3c3cccnc23)c1` [Compound 61] showed a melting point of 156 °C. For the same compound, the negative logarithm of the IC50 (pIC50) in series [1] is 5.70.

Compound `CC(C)Cc1nnc2c3cccnc3c(-c3cccc([N+](=O)[O-])c3)nn12` [Compound 109] showed a melting point of 178 °C. The pIC50 in series [1] was 7.40.

In turn, `O=[N+]([O-])c1cccc(-c2nn3c(CC4CC4)nnc3c3cccnc23)c1` [Compound 112, 3-cyclopropylmethyl-6-(3-nitrophenyl)-1,2,4-triazolo[4,3-b]pyrido[3,2-d]pyridazine] showed a melting point of 164 °C. The negative-log IC50 (pIC50) in series [1] is 6.15.

As to `O=[N+]([O-])c1cccc(-c2nn3c(CC4CCC4)nnc3c3cccnc23)c1` [Compound 113, 3-cyclobutylmethyl-6-(3-nitrophenyl)-1,2,4-triazolo[4,3-b]pyrido[3,2-d]pyridazine], the melting point worked out at 150 °C. The negative-log IC50 (pIC50) in series [1] is 6.70.

For the compound `CC(C)Cc1nnc2c3ccccc3c(-c3ccccc3)nn12` [Compound A, 3-isobutyl-6-phenyl-1,2,4-triazolo[3,4-a]phthalazine, reference compound], in series [1], the pIC50 is 5.00.
